Measured values taken from US20260001854A1, “CONJUGATE COMPOUND COMPRISING 13-CIS-RETINOIC ACID AND ASCORBIC ACID” (Mastery Biotech CO., LTD., priority 2023, published 2026).

Assays:
[1] = MTT cell viability (cytotoxicity) assay, A549; type: cell-based, human; details: human, A549 cells
Protocol: (§1) Cells were cultured in indicated growth medium with 10% FBS and were maintained in a humidified incubator at 37° C. containing 5% CO2. Formula A2 compound was weighted and dissolved in DMSO/EtOH mixture solvent of 1/4 (v/v) ratio to a final concentration of 200 mM at the day of treatment. One day before treatment, cells at log-phase of growth were harvested, counted, and seeded in a 96-well plate at a density of 5×10^3 cells/[…]/well. After cultivation overnight, assumed wells were gently added with […] of fresh media prepared with the serial concentration from 40 to 1000 μM to bring the working concentration from 20 to 500 μM subsequently. The control plate without Formula A2 was carried out as the same procedure as above but […] of fresh media prepared with the equal solvent volume added. All plates were mixed gently and incubated for next 24 hours.
(§2) At the day of cell viability detection, tested wells were added […] of MTT working solution and incubated at 37° C. for 3 hours. Spectrophotometric absorbance readings were recorded at wavelength of 540 nm. Readings from blank wells (wells contains only cell culture medium without cells) and negative control wells (wells with cell and culture medium without Formula A2 and solvent treatment) were recorded and used for calibration. After all readings of OD540 subtracted the blank value, the percentage of cell viability were calculated using the following formula: […]
(§3) The concentration of Compound A that inhibited cell survival to 50% (IC50) was determined by an online tool “Quest Graph™ IC50 Calculator.” AAT Bioquest, Inc., 26 June. 2024, www.aatbio.com/tools/ic50-calculator.

A549 = assay: MTT cell viability (cytotoxicity) assay, A549; type: cell-based, human; details: Homo sapiens; A549 cell line, estimated from cell viability values with Quest Graph IC50 Calculator; read-out: IC50 (concentration that inhibited cell survival to 50%)
Protocol: as §1, §2, §3

[2] = MTT cell viability (cytotoxicity) assay, A549; type: cell-based; details: human, A549 cells
[3] = MTT cell viability (cytotoxicity) assay, PANC-1; type: cell-based; details: human, PANC-1 cells, mean of 6 wells
Protocol: as §1, §2, §3

[4] = MTT cell viability (cytotoxicity) assay, Caco-2; type: cell-based; details: human, mean of 6 wells
Protocol: as §1, §2, §3

`CC1=C(/C=C/C(C)=C/C=C/C(C)=C\C(=O)O)C(C)(C)CCC1` [13-cis retinoic acid, (2Z,4E,6E,8E)-3,7-dimethyl-9-(2,6,6-trimethylcyclohex-1-en-1-yl)nona-2,4,6,8-tetraenoic acid, reference compound] showed a viability at 24 h, 30 μM ([1]; 13-cis RA 30 μM) of 75%, a viability at 24 h, 60 μM ([1]; 13-cis RA 60 μM) of 73% and a viability at 24 h, 120 μM ([1]; 13-cis RA 120 μM) of 57%. For the same compound, the viability at 24 h, 240 μM ([1]; 13-cis RA 240 μM) was 50%, the viability at 24 h, 480 μM ([1]; 13-cis RA 480 μM) was 50% and the IC50 (A549) was 518 µM. It also gave a viability at 24 h, 7.5 μM ([2]; 13-cis RA 7.5 μM) of 95%, a viability at 24 h, 15 μM ([2]; 13-cis RA 15 μM) of 78% and a viability at 24 h, 960 μM ([2]; 13-cis RA 960 μM) of 51%.

Compound `CC1=C(/C=C/C(C)=C/C=C/C(C)=C\C(=O)OC2=C(O)[C@@H]([C@@H](O)CO)OC2=O)C(C)(C)CCC1` [Formula A1] has a viability at 24 h, 20 μM ([3]; 20 μM) of 69%, a viability at 24 h, 50 μM ([3]; 50 μM) of 69% and a viability at 24 h, 100 μM ([3]; 100 μM) of 54%. It also gave a viability at 24 h, 150 μM ([3]; 150 μM) of 50%, a viability at 24 h, 180 μM ([3]; 180 μM) of 16% and a viability at 24 h, 230 μM ([3]; 230 μM) of 17%. It also gave a viability at 24 h, 253 μM ([3]; 253 μM) of 19%, a viability at 24 h, 500 µM ([3]; 500 μM) of 22% and a viability at 24 h, 200 µM ([4]; 200 μM) of 91%. It also gave a viability at 24 h, 300 µM ([4]; 300 μM) of 58%, a viability at 24 h, 400 µM ([4]; 400 μM) of 33% and a viability at 24 h, 500 µM ([4]; 500 μM) of 24%. The viability at 24 h, 20 μM ([1]; Formula A1 20 μM, 24 hours, MTT, mean of 6 wells) was 102%, the viability at 24 h, 100 μM ([1]; Formula A1 100 μM, 24 hours, MTT, mean of 6 wells) was 100% and the viability at 24 h, 150 μM ([1]; Formula A1 150 μM, 24 hours, MTT, mean of 6 wells) was 80%. The viability at 24 h, 180 μM ([1]; Formula A1 180 μM, 24 hours, MTT, mean of 6 wells) was 29%, the viability at 24 h, 230 μM ([1]; Formula A1 230 μM, 24 hours, MTT, mean of 6 wells) was 63% and the viability at 24 h, 253 μM ([1]; Formula A1 253 μM, 24 hours, MTT, mean of 6 wells) was 28%. The viability at 24 h, 500 µM ([1]; Formula A1 500 μM, 24 hours, MTT, mean of 6 wells) was 11%, the IC50 (A549) was 197 µM and the viability at 24 h, 50 μM ([2]; Formula A1 50 μM, 24 hours, MTT, mean of 6 wells) was 94%.
